# Data from patent publication US10118935B2, “Melampomagnolide B dimers” (priority 2014, dated 2018).
# How the values were obtained:
# HT29 = assay: NCI 60 cell line five dose, Colon Cancer
# MCF7 = assay: NCI 60 cell line five dose, Breast Cancer
# NCI-H322M [1] = assay: NCI 60 cell line five dose, Non-Small Cell Lung Cancer
# HS 578T = assay: NCI 60 cell line five dose, Breast Cancer; conditions: HS 578T
# TK-10 = assay: NCI 60 cell line five dose, Renal Cancer
# U251 = assay: NCI 60 cell line five dose, CNS Cancer
# SK-MEL-2 = assay: NCI 60 cell line five dose, Melanoma
# OVCAR-4 = assay: NCI 60 cell line five dose, Ovarian Cancer
# T-47D = assay: NCI 60 cell line five dose, Breast Cancer
# NCI-H322M [2] = system: NCI-H322M
# HOP-92 = assay: NCI 60 cell line five dose, Non-Small Cell Lung Cancer
# ACHN = assay: NCI 60 cell line five dose, Renal Cancer
compound,measurement,setting,value
"C=C1C(=O)O[C@H]2[C@H]1CC/C(COC(=O)NCCCCCNC(=O)OC/C1=C/CC[C@@]3(C)O[C@H]3[C@H]3OC(=O)C(=C)[C@@H]3CC1)=C\CC[C@@]1(C)O[C@@H]21 [JVM 2-76, bis(((1aR,7aS,10aS,10bS,E)-1a-Methyl-8-methylene-9-oxo-1a,2,3,6,7,7a,8,9,10a,10b-decahydrooxireno[2′,3′:9,10]cyclodeca[1,2-b]furan-5-yl)methyl)pentane-1,5-diyldicarbamate]",GI50,HT29,0.51 µM
same,TGI,HT29,1.78 µM
same,CC50,HT29; read-out: LC50,4.85 µM
same,GI50,MCF7,0.39 µM
same,TGI,MCF7,1.93 µM
same,CC50,MCF7; read-out: LC50,6.2 µM
same,GI50,NCI-H322M [1],16.4 µM
same,TGI,NCI-H322M [1],41.6 µM
same,GI50,HS 578T,2.91 µM
same,TGI,HS 578T,13.0 µM
same,CC50,HS 578T; read-out: LC50,> 100 µM
same,GI50,TK-10,1.82 µM
same,TGI,TK-10,4.40 µM
same,CC50,TK-10; read-out: LC50,11.8 µM
same,GI50,U251,3.51 µM
same,TGI,U251,13.7 µM
same,CC50,U251; read-out: LC50,51.5 µM
same,GI50,SK-MEL-2,2.01 µM
same,TGI,SK-MEL-2,3.96 µM
same,CC50,SK-MEL-2; read-out: LC50,7.81 µM
same,GI50,OVCAR-4,2.72 µM
same,TGI,OVCAR-4,15.2 µM
same,CC50,OVCAR-4; read-out: LC50,41.9 µM
same,GI50,T-47D,1.6 µM
same,TGI,T-47D,5.73 µM
same,CC50,T-47D; read-out: LC50,> 100 µM
same,CC50,NCI-H322M [2],> 100 µM
same,GI50,HOP-92,1.3 µM
same,TGI,HOP-92,3.35 µM
same,CC50,HOP-92; read-out: LC50,8.61 µM
same,GI50,ACHN,3.05 µM
same,TGI,ACHN,9.84 µM
same,CC50,ACHN; read-out: LC50,35.4 µM
